Test results: ChEMBL document CHEMBL1201862, “PubChem BioAssay data set” (2004)
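Where inhibition never reached the appropriate level, the endpoint shown equals the highest concentration tested. Otherwise, values were interpolated linearly from a five-concentration, 48-hour dose response in 96-well plates. GI50 is the concentration that inhibits growth by half.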 Activity calls are given as the source filed them. Cut-off read from the data, not from the text of the source: active = GI50 up to about 1.1 µM and inactive = higher.

Tests used:
Assay in all cases: growth of human tumour cells (NCI), 48 h
MDA-MB-231 = system: MDA-MB-231
NCI-H23 = system: NCI-H23
MDA-MB-435 = system: MDA-MB-435
M14 = system: M14
DU-145 = system: DU-145
SF-295 = system: SF-295
OVCAR-8 = system: OVCAR-8
HL-60 = system: HL-60
LOX IMVI = system: LOX IMVI
UO-31 = system: UO-31
K562 = system: K562
MCF7 = system: MCF7
SNB-19 = system: SNB-19
RPMI-8226 = system: RPMI-8226
PC-3 = system: PC-3
NCI-H460 = system: NCI-H460
SK-MEL-28 = system: SK-MEL-28
SR = system: SR
COLO 205 = system: COLO 205
UACC-62 = system: UACC-62
NCI-H522 = system: NCI-H522
HT-29 = system: HT-29
HOP-92 = system: HOP-92
A549 = system: A549
SF-539 = system: SF-539
KM12 = system: KM12
SW-620 = system: SW-620
BT-549 = system: BT-549
NCI-H226 = system: NCI-H226
CCRF-CEM = system: CCRF-CEM
MDA-N = system: MDA-N
SK-MEL-2 = system: SK-MEL-2
SF-268 = system: SF-268
RXF 393 = system: RXF 393
T47D = system: T47D
HCT-15 = system: HCT-15
IGROV-1 = system: IGROV-1
SK-OV-3 = system: SK-OV-3
MOLT-4 = system: MOLT-4
HCT-116 = system: HCT-116
Malme-3M = system: Malme-3M
OVCAR-3 = system: OVCAR-3
ACHN = system: ACHN
Hs-578T = system: Hs-578T
SNB-75 = system: SNB-75
NCI/ADR-RES = system: NCI/ADR-RES
OVCAR-5 = system: OVCAR-5
EKVX = system: EKVX
HCC 2998 = system: HCC 2998
SK-MEL-5 = system: SK-MEL-5
786-0 = system: 786-0
SN12C = system: SN12C
OVCAR-4 = system: OVCAR-4
UACC-257 = system: UACC-257
U-251 = system: U-251
TK-10 = system: TK-10
HOP-62 = system: HOP-62
CAKI-1 = system: CAKI-1

SMILES: CCc1cc2c(c3c1CCCC3)CC1(Cc3ccc(C(=O)OC)cc3C1)C2 (centres undefined)
- GI50 (MDA-MB-231): > 100 µM (inactive)
- GI50 (NCI-H23): > 100 µM (inactive)
- GI50 (MDA-MB-435): 52.6 µM (inactive)
- GI50 (M14): > 100 µM (inactive)
- GI50 (DU-145): > 100 µM (inactive)
- GI50 (SF-295): > 100 µM (inactive)
- GI50 (OVCAR-8): > 100 µM (inactive)
- GI50 (HL-60): 20.8 µM (inactive)
- GI50 (LOX IMVI): > 100 µM (inactive)
- GI50 (UO-31): > 100 µM (inactive)
- GI50 (K562): 40.3 µM (inactive)
- GI50 (MCF7): > 100 µM (inactive)
- GI50 (SNB-19): > 100 µM (inactive)
- GI50 (RPMI-8226): 44.6 µM (inactive)
- GI50 (PC-3): 65 µM (inactive)
- GI50 (NCI-H460): > 100 µM (inactive)
- GI50 (SK-MEL-28): > 100 µM (inactive)
- GI50 (SR): 28.9 µM (inactive)
- GI50 (COLO 205): > 100 µM (inactive)
- GI50 (UACC-62): > 100 µM (inactive)
- GI50 (NCI-H522): > 100 µM (inactive)
- GI50 (HT-29): 73.8 µM (inactive)
- GI50 (HOP-92): 36.7 µM (inactive)
- GI50 (A549): > 100 µM (inactive)
- GI50 (SF-539): > 100 µM (inactive)
- GI50 (KM12): > 100 µM (inactive)
- GI50 (SW-620): > 100 µM (inactive)
- GI50 (BT-549): > 100 µM (inactive)
- GI50 (NCI-H226): > 100 µM (inactive)
- GI50 (CCRF-CEM): 18.3 µM (inactive)
- GI50 (MDA-N): > 100 µM (inactive)
- GI50 (SK-MEL-2): 94.6 µM (inactive)
- GI50 (SF-268): > 100 µM (inactive)
- GI50 (RXF 393): > 100 µM (inactive)
- GI50 (T47D): 46.8 µM (inactive)
- GI50 (HCT-15): > 100 µM
- GI50 (IGROV-1): > 100 µM (inactive)
- GI50 (SK-OV-3): > 100 µM (inactive)
- GI50 (MOLT-4): 35.4 µM (inactive)
- GI50 (HCT-116): 54.3 µM (inactive)
- GI50 (Malme-3M): > 100 µM (inactive)
- GI50 (OVCAR-3): > 100 µM (inactive)
- GI50 (ACHN): > 100 µM (inactive)
- GI50 (Hs-578T): 60.3 µM (inactive)
- GI50 (SNB-75): > 100 µM (inactive)
- GI50 (NCI/ADR-RES): > 100 µM (inactive)
- GI50 (OVCAR-5): > 100 µM (inactive)
- GI50 (EKVX): 64.4 µM (inactive)
- GI50 (HCC 2998): > 100 µM (inactive)
- GI50 (SK-MEL-5): 71.8 µM (inactive)
- GI50 (786-0): > 100 µM (inactive)
- GI50 (SN12C): > 100 µM (inactive)
- GI50 (OVCAR-4): > 100 µM (inactive)
- GI50 (UACC-257): 53.1 µM (inactive)
- GI50 (U-251): 86.1 µM (inactive)
- GI50 (TK-10): > 100 µM (inactive)
- GI50 (HOP-62): > 100 µM (inactive)

SMILES: CC(CC(=O)N1C2CC3CCC2(CS1(=O)=O)C3(C)C)[Si](C)(C)C (centres undefined)
- GI50 (MDA-MB-231): > 100 µM (inactive)
- GI50 (NCI-H23): > 100 µM (inactive)
- GI50 (MDA-MB-435): > 100 µM (inactive)
- GI50 (M14): > 100 µM (inactive)
- GI50 (DU-145): > 100 µM (inactive)
- GI50 (SF-295): > 100 µM (inactive)
- GI50 (OVCAR-8): > 100 µM (inactive)
- GI50 (HL-60): > 100 µM (inactive)
- GI50 (LOX IMVI): > 100 µM (inactive)
- GI50 (UO-31): > 100 µM (inactive)
- GI50 (K562): > 100 µM (inactive)
- GI50 (MCF7): > 100 µM (inactive)
- GI50 (SNB-19): > 100 µM (inactive)
- GI50 (RPMI-8226): > 100 µM (inactive)
- GI50 (PC-3): 61.5 µM (inactive)
- GI50 (NCI-H460): > 100 µM (inactive)
- GI50 (SK-MEL-28): > 100 µM (inactive)
- GI50 (SR): > 100 µM (inactive)
- GI50 (COLO 205): > 100 µM (inactive)
- GI50 (NCI-H522): > 100 µM (inactive)
- GI50 (HT-29): > 100 µM (inactive)
- GI50 (A549): > 100 µM (inactive)
- GI50 (SF-539): > 100 µM (inactive)
- GI50 (KM12): > 100 µM (inactive)
- GI50 (SW-620): > 100 µM (inactive)
- GI50 (BT-549): > 100 µM (inactive)
- GI50 (NCI-H226): > 100 µM (inactive)
- GI50 (CCRF-CEM): > 100 µM (inactive)
- GI50 (MDA-N): > 100 µM (inactive)
- GI50 (SF-268): > 100 µM (inactive)
- GI50 (RXF 393): > 100 µM (inactive)
- GI50 (T47D): > 100 µM (inactive)
- GI50 (HCT-15): > 100 µM
- GI50 (IGROV-1): > 100 µM (inactive)
- GI50 (MOLT-4): > 100 µM (inactive)
- GI50 (HCT-116): > 100 µM (inactive)
- GI50 (Malme-3M): > 100 µM (inactive)
- GI50 (OVCAR-3): > 100 µM (inactive)
- GI50 (ACHN): > 100 µM (inactive)
- GI50 (Hs-578T): > 100 µM (inactive)
- GI50 (SNB-75): > 100 µM (inactive)
- GI50 (NCI/ADR-RES): > 100 µM (inactive)
- GI50 (EKVX): > 100 µM (inactive)
- GI50 (HCC 2998): > 100 µM (inactive)
- GI50 (SK-MEL-5): > 100 µM (inactive)
- GI50 (CAKI-1): > 100 µM (inactive)
- GI50 (786-0): > 100 µM (inactive)
- GI50 (SN12C): > 100 µM (inactive)
- GI50 (UACC-257): > 100 µM (inactive)
- GI50 (U-251): > 100 µM (inactive)
- GI50 (TK-10): > 100 µM (inactive)
- GI50 (HOP-62): > 100 µM (inactive)
